Values after ≈ are worked out from the molar mass of the structure shown.
How the values were obtained:
[1] = tested on: guinea pig papillary muscle; settings: 0.4 µM; cited from earlier work
[2] = cited from earlier work
[3] = Surfactant-assisted rapid release of BF211@Lipo; type: physicochemical

## C[C@]12CC[C@H](O)C[C@H]1CC[C@@H]1[C@@H]2CC[C@]2(C)[C@@H](c3ccc(=O)oc3)CC[C@]12O [BF, Bufalin]
[1]
  effect on papillary muscle: arrhythmias
[2]
  solubility: 10 µg/mL (≈ 25.9 µM)

## Tween 80
[3]
  release-promoting effect on BF211@Lipo: weak and unregulated release-promoting effect

Source: paper PMC8165102 (International Journal of Nanomedicine, 2021)
